Measurements as given in patent EP0382538A2, “A process for the preparation of cysteine-rich polypeptides, including echistatin” (MERCK & CO. INC., priority 1989, dated 1990).

Experiments:
[1] = Preliminary in vivo antithrombotic studies
platelet aggregation = test: Platelet aggregation initiated by other agonists; assay type: cell-based; conditions: aggregation initiated by thrombin, epinephrin, collagen, or platelet activating factor
[2] = system: HUMAN PLATELET AGGREGATION; test: Platelet aggregation assay (ADP-initiated, fibrinogen-dependent, Chronolog aggregometer); assay type: cell-based; conditions: inhibition of rate of human platelet aggregation by 50%; washed platelets 2 x 10⁸/ml, fibrinogen 100 µg/mL, Ca²⁺ 1 mM, 10 µM ADP, 37°C; platelets from 2-4 donors, duplicate; read-out: IC₅₀(µM) (95% CONFIDENCE LIMITS)
Experimental: Platelet aggregation was measured at 37°C in a Chronolog aggregometer. The reaction mixture contained washed platelets (2 x 10⁸/ml), fibrinogen (100 µg/mL), Ca²⁺ (1 mM), and the platelet aggregation inhibitor fraction to be tested. The aggregation was initiated by adding 10 µM ADP 1 min after the other components had been added. The reaction was allowed to proceed for at least 2 min. The extent of inhibition of aggregation was expressed as the percentage of the rate of aggregation observed in the absence of inhibitor. […]
The concentration of peptide necessary to inhibit the rate of human platelet aggregation by 50% (IC₅₀) was determined using platelets from 2-4 donors. Determinations were performed in duplicate for each donor.

Echistatin [Synthetic Echistatin]
antithrombotic effect in vivo [1]: very effective antithrombotic agent
prevention of platelet aggregation (platelet aggregation): prevents aggregation
IC50 [2]: 0.033 µM
